Columns and labels:
Format in all cases: in vivo
[1] = test system: barnyardgrass (Echinochloa crus-galli); assay: Test G Pre-Emergence Protocol; conditions: Echinochloa crus-galli, pre-emergence, 312 h, evaluated after 13 days; for pest or weed control at 15.625 g/ha: 15.625 g ai/ha, read-out: Barnyard grass damage rating (100=total damage to plant; 0=no damage to plant); for pest or weed control at 62.5 g/ha: 62.5 g ai/ha, 100=total damage to plant, 0=no damage to plant, read-out: plant damage rating, Barnyardgrass; for pest or weed control at 250 g/ha: 250 g ai/ha, read-out: Barnyardgrass damage rating (100=total damage to plant; 0=no damage to plant)
In short: (§1)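 One day after sowing, pots are treated with a spray of test compound formulated in acetone/water 50:50 plus 0.5% Tween 20, giving 15.625, 62.5 or 250 g/ha. Evaluation on a 0–100 damage scale follows 13 days of glasshouse growth.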

[2] = test system: corn (Zea mays); assay: Test G Pre-Emergence Protocol; conditions: Zea mays, pre-emergence, 312 h, evaluated after 13 days; for plant injury at 15.625 g/ha: 15.625 g ai/ha; for plant injury at 15.625 g/ha / plant injury at 250 g/ha: read-out: Corn damage rating (100=total damage to plant; 0=no damage to plant); for plant injury at 62.5 g/ha: 62.5 g ai/ha, 100=total damage to plant, 0=no damage to plant, read-out: plant damage rating, Corn; for plant injury at 250 g/ha: 250 g ai/ha
In short: as §1

[3] = test system: giant foxtail (Setaria faberi); assay: Test G Pre-Emergence Protocol; conditions: Setaria faberi, pre-emergence, 312 h, evaluated after 13 days; for pest or weed control at 15.625 g/ha: 15.625 g ai/ha; for pest or weed control at 15.625 g/ha / pest or weed control at 250 g/ha: read-out: Foxtail, Giant damage rating (100=total damage to plant; 0=no damage to plant); for pest or weed control at 62.5 g/ha: 62.5 g ai/ha, 100=total damage to plant, 0=no damage to plant, read-out: plant damage rating, Foxtail, Giant; for pest or weed control at 250 g/ha: 250 g ai/ha
In short: as §1

[4] = test system: ivy-leaved morning glory (Ipomoea hederacea); assay: Test G Pre-Emergence Protocol; conditions: Ipomoea, pre-emergence, 312 h, evaluated after 13 days; for pest or weed control at 15.625 g/ha: 15.625 g ai/ha, read-out: Morning-glory, Ivy-leaved damage rating (100=total damage to plant; 0=no damage to plant); for pest or weed control at 62.5 g/ha: 62.5 g ai/ha, 100=total damage to plant, 0=no damage to plant, read-out: plant damage rating, Morningglory, Ivy-leaved; for pest or weed control at 250 g/ha: 250 g ai/ha, read-out: Morningglory, Ivy-leaved damage rating (100=total damage to plant; 0=no damage to plant)
In short: as §1

[5] = test system: redroot pigweed (Amaranthus retroflexus); assay: Test G Pre-Emergence Protocol; conditions: Amaranthus retroflexus, pre-emergence, 312 h, evaluated after 13 days; for pest or weed control at 15.625 g/ha: 15.625 g ai/ha; for pest or weed control at 15.625 g/ha / pest or weed control at 250 g/ha: read-out: Pigweed, Redroot damage rating (100=total damage to plant; 0=no damage to plant); for pest or weed control at 62.5 g/ha: 62.5 g ai/ha, 100=total damage to plant, 0=no damage to plant, read-out: plant damage rating, Pigweed, Redroot; for pest or weed control at 250 g/ha: 250 g ai/ha
In short: as §1

[6] = test system: velvetleaf (Abutilon theophrasti); assay: Test G Pre-Emergence Protocol; conditions: Abutilon theophrasti, pre-emergence, 312 h, evaluated after 13 days; for pest or weed control at 15.625 g/ha: 15.625 g ai/ha; for pest or weed control at 15.625 g/ha / pest or weed control at 250 g/ha: read-out: Velvetleaf damage rating (100=total damage to plant; 0=no damage to plant); for pest or weed control at 62.5 g/ha: 62.5 g ai/ha, 100=total damage to plant, 0=no damage to plant, read-out: plant damage rating, Velvetleaf; for pest or weed control at 250 g/ha: 250 g ai/ha
In short: as §1

[7] = test system: barnyardgrass (Echinochloa crus-galli); assay: Test G Post-Emergence Protocol; conditions: Echinochloa crus-galli, post-emergence, 312 h; for pest or weed control at 15.625 g/ha: 15.625 g ai/ha, evaluated after 13 days (100=total damage to plant; 0=no damage to plant), read-out: Barnyardgrass damage rating; for pest or weed control at 62.5 g/ha: 62.5 g ai/ha, read-out: Barnyardgrass damage rating (100=total damage to plant; 0=no damage to plant); for pest or weed control at 62.5 g/ha / pest or weed control at 250 g/ha: evaluated after 13 days; for pest or weed control at 250 g/ha: 250 g ai/ha, read-out: damage to plant, Barnyardgrass (100=total damage to plant; 0=no damage to plant)
In short: (§2)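 Post-emergence herbicidal damage, scored visually 0–100 at 13 days. Application at 15.625, 62.5 or 250 g/ha onto 8-day-old plants grown under glasshouse control.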

[8] = test system: corn (Zea mays); assay: Test G Post-Emergence Protocol; conditions: Zea mays, post-emergence, 312 h; for plant injury at 15.625 g/ha: 15.625 g ai/ha, evaluated after 13 days (100=total damage to plant; 0=no damage to plant), read-out: Corn damage rating; for plant injury at 62.5 g/ha: 62.5 g ai/ha, read-out: Corn damage rating (100=total damage to plant; 0=no damage to plant); for plant injury at 62.5 g/ha / plant injury at 250 g/ha: evaluated after 13 days; for plant injury at 250 g/ha: 250 g ai/ha, read-out: damage to plant, Corn (100=total damage to plant; 0=no damage to plant)
In short: as §2

[9] = test system: giant foxtail (Setaria faberi); assay: Test G Post-Emergence Protocol; conditions: Setaria faberi, post-emergence, 312 h; for pest or weed control at 15.625 g/ha: 15.625 g ai/ha, evaluated after 13 days (100=total damage to plant; 0=no damage to plant), read-out: Foxtail, Giant damage rating; for pest or weed control at 62.5 g/ha: 62.5 g ai/ha, read-out: Foxtail, Giant damage rating (100=total damage to plant; 0=no damage to plant); for pest or weed control at 62.5 g/ha / pest or weed control at 250 g/ha: evaluated after 13 days; for pest or weed control at 250 g/ha: 250 g ai/ha, read-out: damage to plant, Foxtail, Giant (100=total damage to plant; 0=no damage to plant)
In short: as §2

[10] = test system: ivy-leaved morning glory (Ipomoea hederacea); assay: Test G Post-Emergence Protocol; conditions: Ipomoea, post-emergence, 312 h; for pest or weed control at 15.625 g/ha: 15.625 g ai/ha, evaluated after 13 days (100=total damage to plant; 0=no damage to plant), read-out: Morningglory, Ivy-leaved damage rating; for pest or weed control at 62.5 g/ha: 62.5 g ai/ha, read-out: Morningglory, Ivy-leaved damage rating (100=total damage to plant; 0=no damage to plant); for pest or weed control at 62.5 g/ha / pest or weed control at 250 g/ha: evaluated after 13 days; for pest or weed control at 250 g/ha: 250 g ai/ha, read-out: damage to plant, Morningglory, Ivy-leaved (100=total damage to plant; 0=no damage to plant)
In short: as §2

[11] = test system: redroot pigweed (Amaranthus retroflexus); assay: Test G Post-Emergence Protocol; conditions: Amaranthus retroflexus, post-emergence, 312 h; for pest or weed control at 15.625 g/ha: 15.625 g ai/ha, evaluated after 13 days (100=total damage to plant; 0=no damage to plant), read-out: Pigweed, Redroot damage rating; for pest or weed control at 62.5 g/ha: 62.5 g ai/ha, read-out: Pigweed, Redroot damage rating (100=total damage to plant; 0=no damage to plant); for pest or weed control at 62.5 g/ha / pest or weed control at 250 g/ha: evaluated after 13 days; for pest or weed control at 250 g/ha: 250 g ai/ha, read-out: damage to plant, Pigweed, Redroot (100=total damage to plant; 0=no damage to plant)
In short: as §2

[12] = test system: velvetleaf (Abutilon theophrasti); assay: Test G Post-Emergence Protocol; conditions: Abutilon theophrasti, post-emergence, 312 h; for pest or weed control at 15.625 g/ha: 15.625 g ai/ha, evaluated after 13 days (100=total damage to plant; 0=no damage to plant), read-out: Velvetleaf damage rating; for pest or weed control at 62.5 g/ha: 62.5 g ai/ha, read-out: Velvetleaf damage rating (100=total damage to plant; 0=no damage to plant); for pest or weed control at 62.5 g/ha / pest or weed control at 250 g/ha: evaluated after 13 days; for pest or weed control at 250 g/ha: 250 g ai/ha, read-out: damage to plant, Velvetleaf (100=total damage to plant; 0=no damage to plant)
In short: as §2

Compound	pest or weed control at 15.625 g/ha [1] [%]	pest or weed control at 62.5 g/ha [1] [%]	pest or weed control at 250 g/ha [1] [%]	plant injury at 15.625 g/ha [2] [%]	plant injury at 62.5 g/ha [2] [%]	plant injury at 250 g/ha [2] [%]	pest or weed control at 15.625 g/ha [3] [%]	pest or weed control at 62.5 g/ha [3] [%]	pest or weed control at 250 g/ha [3] [%]	pest or weed control at 15.625 g/ha [4] [%]	pest or weed control at 62.5 g/ha [4] [%]	pest or weed control at 250 g/ha [4] [%]	pest or weed control at 15.625 g/ha [5] [%]	pest or weed control at 62.5 g/ha [5] [%]	pest or weed control at 250 g/ha [5] [%]	pest or weed control at 15.625 g/ha [6] [%]	pest or weed control at 62.5 g/ha [6] [%]	pest or weed control at 250 g/ha [6] [%]	pest or weed control at 15.625 g/ha [7] [%]	pest or weed control at 62.5 g/ha [7] [%]	also measured
CN1C[C@@H](c2ccc(C(F)(F)F)cc2)[C@H](C(=O)Nc2ccnc(Cl)c2)C1=O (racemic) [Compound 1571]	0	0	0	0	0	0	0	0	20	0	0	0	0	0	0	0	0	0	0	0	pest or weed control at 250 g/ha [7]: 0%; plant injury at 15.625 g/ha [8]: 0%; plant injury at 62.5 g/ha [8]: 0%; plant injury at 250 g/ha [8]: 0%; pest or weed control at 15.625 g/ha [9]: 0%; pest or weed control at 62.5 g/ha [9]: 0%; pest or weed control at 250 g/ha [9]: 0%; pest or weed control at 15.625 g/ha [10]: 0%; pest or weed control at 62.5 g/ha [10]: 0%; pest or weed control at 250 g/ha [10]: 0%; pest or weed control at 15.625 g/ha [11]: 0%; pest or weed control at 62.5 g/ha [11]: 0%; pest or weed control at 250 g/ha [11]: 0%; pest or weed control at 15.625 g/ha [12]: 0%; pest or weed control at 62.5 g/ha [12]: 0%; pest or weed control at 250 g/ha [12]: 0%
CN1C[C@@H](c2ccc(C(F)(F)F)nc2)[C@H](C(=O)Nc2cccc(F)c2F)C1=O (racemic) [Compound 1458]	20	80	80	0	0	50	20	80	80	0	0	20	0	0	70	0	0	30	10	20	pest or weed control at 250 g/ha [7]: 20%; plant injury at 15.625 g/ha [8]: 10%; plant injury at 62.5 g/ha [8]: 10%; plant injury at 250 g/ha [8]: 10%; pest or weed control at 15.625 g/ha [9]: 30%; pest or weed control at 62.5 g/ha [9]: 50%; pest or weed control at 250 g/ha [9]: 60%; pest or weed control at 15.625 g/ha [10]: 10%; pest or weed control at 62.5 g/ha [10]: 20%; pest or weed control at 250 g/ha [10]: 30%; pest or weed control at 15.625 g/ha [11]: 10%; pest or weed control at 62.5 g/ha [11]: 30%; pest or weed control at 250 g/ha [11]: 30%; pest or weed control at 15.625 g/ha [12]: 0%; pest or weed control at 62.5 g/ha [12]: 0%; pest or weed control at 250 g/ha [12]: 0%
